For 13 molecules, DC50 and Dmax results are on record in patent US20250206732A1, “COMPOUNDS AND METHODS FOR THE TARGETED DEGRADATION OF KRAS” (Arvinas Operations, Inc., priority 2022, published 2025).

The experiment concerns the target T1, AsPC-1 HiBiT-KRASG12D (Homo sapiens, UniProt P01116, G12D).
T1 construct: insert the HiBiT tag onto the N-terminus of one or more of the endogenous KRAS alleles; endogenous in cells; host or cells: AsPC-1 (ATCC CRL-1682), CRISPR-Cas9 knock-in clone, one tagged allele
Description: HiBiT degradation assay (G12D), AsPC-1 HiBiT-KRASG12D cells. Format: cell-based. Particulars: 24 hours treatment; for DC50: AsPC-1 HiBiT-KRASG12D cells, HiBiT luminescence; for Dmax: ASPC1, AsPC-1 HiBiT-KRASG12D cells, maximum degradation observed. The method in brief:
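Endogenous KRASG12D levels were measured via an N-terminal HiBiT tag knocked into AsPC-1 cells. Cells received compound titrations for 24 hours, and HiBiT luminescence was detected after a 45-minute lytic reagent incubation at room temperature.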

Molecules are shown by their SMILES. Bounds are passed on as bounds.

T1 sequence (P01116 1-188 isoform P01116-2 G12D): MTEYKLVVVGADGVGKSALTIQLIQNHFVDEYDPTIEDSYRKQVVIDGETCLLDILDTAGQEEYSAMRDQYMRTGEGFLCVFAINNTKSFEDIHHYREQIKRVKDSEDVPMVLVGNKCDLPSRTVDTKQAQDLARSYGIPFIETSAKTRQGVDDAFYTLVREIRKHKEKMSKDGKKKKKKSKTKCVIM

Molecule `CCc1cccc2cc(O)cc(-c3ncc4c(N5CCCCCC5)nc(OC[C@@]56CCCN5[C@H](COc5cc([C@@H](C(=O)N7C[C@H](O)C[C@H]7C(=O)N[C@@H](C)c7ccc(-c8scnc8C)cc7)C(C)C)on5)CC6)nc4c3F)c12` (single isomer, unassigned) [Compound 339] yielded a DC50 greater than 3000 nM.

`CCc1cccc2cc(O)cc(-c3ncc4c(N5CC6CCC(C5)N6)nc(OC[C@@]56CCCN5[C@H](COC(=O)N5CCN(c7cc([C@H](C(=O)N8C[C@H](O)C[C@H]8C(=O)N[C@@H](C)c8ccc(-c9scnc9C)cc8)C(C)C)on7)CC5)CC6)nc4c3F)c12` (stereo in doubt) [Compound 7] came in with a DC50 of less than 600 nM.

The molecule `CCc1cccc2cc(O)cc(-c3ncc4c(N5CC6CCC(C5)N6)nc(OC[C@@]56CCCN5[C@H](COC(=O)N5C[C@@H](C)N(c7cc([C@H](C(=O)N8C[C@H](O)C[C@H]8C(=O)N[C@@H](C)c8ccc(-c9scnc9C)cc8)C(C)C)on7)C[C@@H]5C)CC6)nc4c3F)c12` (stereo in doubt) [Compound 299, [(3S,8R)-8-[[4-(3,8-diazabicyclo[3.2.1]octan-3-yl)-7-(8-ethyl-3-hydroxy-1-naphthyl)-8-fluoro-pyrido[4,3-d]pyrimidin-2-yl]oxymethyl]-1,2,3,5,6,7-hexahydropyrrolizin-3-yl]methyl (2S,5R)-4-[5-[(1R)-1-[(2S,4R)-4-hydroxy-2-[[(1S)-1-[4-(4-methylthiazol-5-yl)phenyl]ethyl]carbamoyl]pyrrolidine-1-carbonyl]-2-methyl-propyl]isoxazol-3-yl]-2,5-dimethyl-piperazine-1-carboxylate] displayed a Dmax of 80 to 100% and a DC50 of less than 600 nM.

With `Cc1ncsc1-c1ccc([C@H](C)NC(=O)[C@@H]2C[C@@H](O)CN2C(=O)[C@@H](c2cc(OCC3CCN(CCOc4nc(N5CC6CCC(C5)N6)c5cnc(-c6cc(O)cc(Cl)c6C(F)(F)F)c(F)c5n4)CC3)no2)C(C)C)cc1` [Compound 24, (2S,4R)-1-[(2R)-2-[3-({1-[2-({7-[3-chloro-5-hydroxy-2-(trifluoromethyl)phenyl]-4-{3,8-diazabicyclo[3.2.1]octan-3-yl}-8-fluoropyrido[4,3-d]pyrimidin-2-yl}oxy)ethyl]piperidin-4-yl}methoxy)-1,2-oxazol-5-yl]-3-methylbutanoyl]-4-hydroxy-N-[(1S)-1-[4-(4-methyl-1,3-thiazol-5-yl)phenyl]ethyl]pyrrolidine-2-carboxamide], the greatest degradation seen (Dmax) lay within 80 to 100% and the DC50 is less than 600 nM.

For the molecule `CCc1cccc2cc(O)cc(-c3ncc4c(N5CC6CCC(C5)N6)nc(O[C@H](C)CN5CCC6(CC5)CN(c5cc([C@H](C(=O)N7C[C@H](O)C[C@H]7C(=O)N[C@@H](C)c7ccc(-c8scnc8C)cc7)C(C)C)on5)C6)nc4c3F)c12` [Compound 25, (2S,4R)-1-[(2R)-2-(3-{7-[(2R)-2-[(4-{3,8-diazabicyclo[3.2.1]octan-3-yl}-7-(8-ethyl-3-hydroxynaphthalen-1-yl)-8-fluoropyrido[4,3-d]pyrimidin-2-yl)oxy]propyl]-2,7-diazaspiro[3.5]nonan-2-yl}-1,2-oxazol-5-yl)-3-methylbutanoyl]-4-hydroxy-N-[(1S)-1-[4-(4-methyl-1,3-thiazol-5-yl)phenyl]ethyl]pyrrolidine-2-carboxamide], the Dmax lay in the range of 20 to 60% and the DC50 was in the range of 600 to 1000 nM.

`CCc1cccc2cc(O)cc(-c3ncc4c(N5CC6CCC(C5)N6)nc(OC[C@]56CCCN5[C@@H](COc5cc([C@H](C(=O)N7C[C@H](O)C[C@H]7C(=O)N[C@@H](C)c7ccc(-c8scnc8C)cc7)C(C)C)on5)CC6)nc4c3F)c12` [Compound 27, (2S,4R)-1-[(2R)-2-(3-{[(3R,7aR)-7a-{[(4-{3,8-diazabicyclo[3.2.1]octan-3-yl}-7-(8-ethyl-3-hydroxynaphthalen-1-yl)-8-fluoropyrido[4,3-d]pyrimidin-2-yl)oxy]methyl}-hexahydro-1H-pyrrolizin-3-yl]methoxy}-1,2-oxazol-5-yl)-3-methylbutanoyl]-4-hydroxy-N-[(1S)-1-[4-(4-methyl-1,3-thiazol-5-yl)phenyl]ethyl]pyrrolidine-2-carboxamide] came in with a 50% degradation concentration (DC50) of less than 600 nM.

`CCc1cccc2cc(O)cc(-c3ncc4c(N5CC6CCC(C5)N6)nc(OC[C@]56CCCN5[C@@H](COc5cc([C@@H](C(=O)N7C[C@H](O)C[C@H]7C(=O)N[C@@H](C)c7ccc(-c8scnc8C)cc7)C(C)C)on5)CC6)nc4c3F)c12` [Compound 28, (2S,4R)-1-[(2S)-2-(3-{[(3R,7aR)-7a-{[(4-{3,8-diazabicyclo[3.2.1]octan-3-yl}-7-(8-ethyl-3-hydroxynaphthalen-1-yl)-8-fluoropyrido[4,3-d]pyrimidin-2-yl)oxy]methyl}-hexahydro-1H-pyrrolizin-3-yl]methoxy}-1,2-oxazol-5-yl)-3-methylbutanoyl]-4-hydroxy-N-[(1S)-1-[4-(4-methyl-1,3-thiazol-5-yl)phenyl]ethyl]pyrrolidine-2-carboxamide] yielded a DC50 greater than 3000 nM.

Turning to `CCc1cccc2cc(O)cc(-c3ncc4c(N5CC6CCC(C5)N6)nc(OC[C@@]56CCCN5[C@H](COc5cc([C@H](C(=O)N7C[C@H](O)C[C@H]7C(=O)N[C@@H](C)c7ccc(-c8scnc8C)cc7)C(C)C)on5)CC6)nc4c3F)c12` [Compound 29, (2S,4R)-1-[(2R)-2-(3-{[(3S,7aS)-7a-{[(4-{3,8-diazabicyclo[3.2.1]octan-3-yl}-7-(8-ethyl-3-hydroxynaphthalen-1-yl)-8-fluoropyrido[4,3-d]pyrimidin-2-yl)oxy]methyl}-hexahydro-1H-pyrrolizin-3-yl]methoxy}-1,2-oxazol-5-yl)-3-methylbutanoyl]-4-hydroxy-N-[(1S)-1-[4-(4-methyl-1,3-thiazol-5-yl)phenyl]ethyl]pyrrolidine-2-carboxamide], the maximal degradation (Dmax) was in the range of 80 to 100% and the DC50 is less than 600 nM.

With `CCc1cccc2cc(O)cc(-c3ncc4c(N5CC6CCC(C5)N6)nc(OC[C@@]56CCCN5[C@H](COc5cc([C@@H](C(=O)N7C[C@H](O)C[C@H]7C(=O)N[C@@H](C)c7ccc(-c8scnc8C)cc7)C(C)C)on5)CC6)nc4c3F)c12` [Compound 30, (2S,4R)-1-[(2S)-2-(3-{[(3S,7aS)-7a-{[(4-{3,8-diazabicyclo[3.2.1]octan-3-yl}-7-(8-ethyl-3-hydroxynaphthalen-1-yl)-8-fluoropyrido[4,3-d]pyrimidin-2-yl)oxy]methyl}-hexahydro-1H-pyrrolizin-3-yl]methoxy}-1,2-oxazol-5-yl)-3-methylbutanoyl]-4-hydroxy-N-[(1S)-1-[4-(4-methyl-1,3-thiazol-5-yl)phenyl]ethyl]pyrrolidine-2-carboxamide], the Dmax lay within 20 to 60% and the 50% degradation concentration (DC50) is less than 600 nM.

Molecule `CCc1cccc2cc(O)cc(-c3ncc4c(N5CC6CCC(C5)N6)nc(OCCN5CCC(C)(COc6cc([C@@H](C(=O)N7C[C@H](O)C[C@H]7C(=O)N[C@@H](C)c7ccc(-c8scnc8C)cc7)C(C)C)on6)CC5)nc4c3F)c12` [Compound 31, (2S,4R)-1-[(2S)-2-{3-[(1-{2-[(4-{3,8-diazabicyclo[3.2.1]octan-3-yl}-7-(8-ethyl-3-hydroxynaphthalen-1-yl)-8-fluoropyrido[4,3-d]pyrimidin-2-yl)oxy]ethyl}-4-methylpiperidin-4-yl)methoxy]-1,2-oxazol-5-yl}-3-methylbutanoyl]-4-hydroxy-N-[(1S)-1-[4-(4-methyl-1,3-thiazol-5-yl)phenyl]ethyl]pyrrolidine-2-carboxamide] displayed a 50% degradation concentration (DC50) greater than 3000 nM.

In the case of `CCc1cccc2cc(O)cc(-c3ncc4c(N5CC6CCC(C5)N6)nc(OCCN5CCC(C)(COc6cc([C@H](C(=O)N7C[C@H](O)C[C@H]7C(=O)N[C@@H](C)c7ccc(-c8scnc8C)cc7)C(C)C)on6)CC5)nc4c3F)c12` [Compound 32, (2S,4R)-1-[(2R)-2-{3-[(1-{2-[(4-{3,8-diazabicyclo[3.2.1]octan-3-yl}-7-(8-ethyl-3-hydroxynaphthalen-1-yl)-8-fluoropyrido[4,3-d]pyrimidin-2-yl)oxy]ethyl}-4-methylpiperidin-4-yl)methoxy]-1,2-oxazol-5-yl}-3-methylbutanoyl]-4-hydroxy-N-[(1S)-1-[4-(4-methyl-1,3-thiazol-5-yl)phenyl]ethyl]pyrrolidine-2-carboxamide], the Dmax was 80 to 100% and the DC50 was less than 600 nM.

In turn, `C#Cc1c(F)ccc2cc(O)cc(-c3ncc4c(N5CC6CCC(C5)N6)nc(OCCN5CCC6(CC5)CN(c5cc([C@H](C(=O)N7C[C@H](O)C[C@H]7C(=O)N[C@@H](C)c7ccc(-c8scnc8C)cc7)C(C)C)on5)C6)nc4c3F)c12` [Compound 33, (2S,4R)-1-[(2R)-2-[3-(7-{2-[(4-{3,8-diazabicyclo[3.2.1]octan-3-yl}-7-(8-ethynyl-7-fluoro-3-hydroxynaphthalen-1-yl)-8-fluoropyrido[4,3-d]pyrimidin-2-yl)oxy]ethyl}-2,7-diazaspiro[3.5]nonan-2-yl)-1,2-oxazol-5-yl]-3-methylbutanoyl]-4-hydroxy-N-[(1S)-1-[4-(4-methyl-1,3-thiazol-5-yl)phenyl]ethyl]pyrrolidine-2-carboxamide] came in with a Dmax of 80 to 100% and a 50% degradation concentration (DC50) of less than 600 nM.

`CCc1cccc2cc(O)cc(-c3ncc4c(N5CC6CCC(C5)N6)nc(OC[C@@H]5CC[C@@H](COC(=O)N6CCN(c7cc([C@H](C(=O)N8C[C@H](O)C[C@H]8C(=O)N[C@@H](C)c8ccc(-c9scnc9C)cc8)C(C)C)on7)CC6)N5C)nc4c3F)c12` [Compound 50, [(2S,5S)-5-{[(4-{3,8-diazabicyclo[3.2.1]octan-3-yl}-7-(8-ethyl-3-hydroxynaphthalen-1-yl)-8-fluoropyrido[4,3-d]pyrimidin-2-yl)oxy]methyl}-1-methylpyrrolidin-2-yl]methyl 4-{5-[(2R)-1-[(2S,4R)-4-hydroxy-2-{[(1S)-1-[4-(4-methyl-1,3-thiazol-5-yl)phenyl]ethyl]carbamoyl}pyrrolidin-1-yl]-3-methyl-1-oxobutan-2-yl]-1,2-oxazol-3-yl}piperazine-1-carboxylate] registered a Dmax of 80 to 100% and a DC50 of less than 600 nM.
